Measurements taken from patent US5030012A, “Pyroelectric calorimeter” (The United States of America as represented by the …, priority 1990, dated 1991).

Legend:
[1] = test system: dark-adapted bullfrog retinas (rods); experiment: Pyroelectric calorimetry and transretinal voltage of flash-stimulated dark-adapted retinas; assay type: cell-based, bullfrog (R. catesbiana)
Method: Dark-adapted bullfrog (R. catesbiana) retinas, removed under infrared illumination, were stored for 10 min to 1 hr in an oxygenated bath containing (in mM) Na^+ : 100, K^+ : 2.7, Ca^++ : 1.4, Mg^++ : 0.5, phosphate: 0.5, HEPES: 10, glucose: 11, EDTA: 0.01, pH 7.1. Cl^- was the main anion. Disks 6.3 mm. across were cut from a retina and attached by their vitreal surfaces to 25 μm. thick nylon mesh (Small Parts, Ltd., Miami, Fla.) disks of the same diameter.
Before use, each disk was soaked for 5 min in a medium containing 10 mM glutamate and 5 mM cysteine to suppress electrical responses from all retinal cells except the rods, cones and glial Muller cells. Using an infrared viewer, the disks were placed on the detector with receptor layer down and excess fluid was blotted away. Flowing moist oxygen replaced the atmosphere every 2 m.
6 μs flashes of spectral width 70 nm. centered at 500, 550 or 640 nm. from a Xenon flash tube were attenuated by a circular graded wedge and fed via a light pipe whose end was projected to a 6 mm circle at the retina. A computerized stepping motor turned the wedge so that flashes of varying intensity could be quickly delivered. The light input at the retina was measured with a silicon photovoltaic diode (International Light, Inc., Newburyport, Mass.). Exposures of the OS were calculated for a rod density in the retinal mosaic of 1.76×10^6 cm^-2. Cone and green rod pigments were neglected and rod porphyropsin was lumped with rhodopsin. Assuming the quantum efficiency of rhodopsin photoisomerization to be 0.6 and its molar absorbance at 550 nm to be 2.0×10^4 M^-1 cm^-1, its isomerization cross section ZR was 4.6×10^-17 cm^2.
In retinas incubated in glutamate Ringer containing […] and a ql of 1-2 μK followed by steady cooling lasting for more than 20 s. or until the dark current resumed. A second flash while the dark current was suppressed (as judged by the absence of change in Vr) gave no ql and no change in rl. In 30 experiments, Vr responses, whose amplitudes corresponded to dark currents of 20-50 pA/rod, were accompanied by ql bursts of 0.8 to 2 μK (mean ±s.e.e.: 1.09±0.05, n=24) while rl varied from -2 to -5 μKs^-1.
ql was unchanged by several agents that suppressed the dark current and changed rl. In this regard, the effects of flashes causing 180 PI/rod on retinal temperature and transretinal voltage were studied with an average of 2-4 trials with 60 s intervals between flashes, during which ql recovered. 30 mM ca^++ in the incubation fluid reduced Vr sixfold and changed rl 's sign while ql remained […] (n=4) μK. […] Nevertheless, a 180 PI/OS flash produced a ql of 1.6±0.1 (n=3) μK and rl of 4 μK/s.

[2] = target: cGMP-induced cationic conductance of rod outer segment membrane patches; conditions: cited from earlier work

In the case of `CC(C)Cn1c(=O)n(C)c(=O)c2[nH]cnc21` [IBMX], the “Vr (transretinal voltage response)” value ([1]; 500 IBMX, 180 PI/rod) is reported as “suppressed”, the “ql (fast heat burst)” value ([1]; 500 IBMX, 180 PI/rod) is reported as “suppressed” and the “Vr (transretinal voltage response)” value ([1]; 500 IBMX, tenfold brighter flashes) is reported as “slow Vr waves”. The “ql (delayed heat)” value ([1]; 500 IBMX, tenfold brighter flashes, n=6) was 2.1±0.1 μK.
In the case of `Nc1nc2c(ncn2[C@@H]2O[C@@H]3COP(=O)(O)O[C@H]3[C@H]2O)c(=O)[nH]1` [cGMP], the Kd ([2]; membrane patch conductance vs free [cGMP], various studies, read-out: dissociation constant Kc) is given as 10 to 42 µM and the “concentration at which the cationic conductance of outer segment membranes increases rapidly and reversibly” value ([2]; outer segment membranes) is given as over 5 µM.
In the case of `c1c[nH]cn1` [imidazole], the “ql (fast heat burst)” value ([1]; 20 mM imidazole in incubation medium, n=3) is reported as 2.4±0.4 μK.
With `C[C@@H]1O[C@@H](O[C@H]2C[C@@H](O)[C@]3(CO)[C@H]4[C@H](O)C[C@]5(C)[C@@H](C6=CC(=O)OC6)CC[C@]5(O)[C@@H]4CC[C@]3(O)C2)[C@H](O)[C@H](O)[C@H]1O` [ouabain] the “Vr (transretinal voltage response)” value ([1]; 50 μM ouabain, 10 m. incubation) was “no Vr”, the “rl (steady heat flux)” value ([1]; 50 μM ouabain, 180 PI/OS flash) was 4 μK/s and the “ql (fast heat burst)” value ([1]; 50 μM ouabain, 180 PI/OS flash, n=3) was 1.6±0.1 μK.
